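Following 48 hours of exposure in 96-well plates, responses at five concentrations were used to interpolate endpoints linearly. At the GI50, growth is halved.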 The source made the active and inactive calls. Cut-off read from the data, not from the text of the source: active = GI50 up to about 1.1 µM and inactive = higher.
How the values were obtained:
Test in all cases: NCI anticancer screen, dose series, 48 h
HOP-18 = tested on: HOP-18
XF498 = tested on: XF498
LXFL 529 = tested on: LXFL 529
DMS-273 = tested on: DMS-273
SNB-78 = tested on: SNB-78
M19-MEL = tested on: M19-MEL
RXF 631 = tested on: RXF 631
T47D = tested on: T47D
MDA-N = tested on: MDA-N

| Structure (SMILES) | GI50 (HOP-18) | GI50 (XF498) | GI50 (LXFL 529) | GI50 (DMS-273) | GI50 (SNB-78) | GI50 (M19-MEL) | GI50 (RXF 631) | GI50 (T47D) | GI50 (MDA-N) |
| --- | --- | --- | --- | --- | --- | --- | --- | --- | --- |
| CCOP(=O)(OCC)C1CCCCOC1=O (stereo unspecified) | 44.2 µM (inactive) | > 100 µM (inactive) | > 100 µM (inactive) | > 100 µM (inactive) | > 100 µM (inactive) | > 100 µM (inactive) | > 100 µM (inactive) |  |  |
| C/C(=N\NC(=S)N1CCC(N2CCCCC2)CC1)c1ccccn1 | 3.8 µM (inactive) | 7 µM (inactive) | 0.828 µM (active) | 2.81 µM (inactive) | 11.5 µM (inactive) | 3.71 µM (inactive) |  | 1.39 µM (inactive) | 2.49 µM (inactive) |
| CC1=C(C(=O)CC(=O)C(=O)Nc2ccccc2)Sc2ccccc2N1 | 78.3 µM (inactive) | > 100 µM (inactive) | > 100 µM (inactive) |  | > 100 µM (inactive) | > 100 µM (inactive) | > 100 µM (inactive) |  |  |
| O=C(Cn1ccnc1[N+](=O)[O-])NCc1ccc(F)cc1 | > 100 µM (inactive) | > 100 µM (inactive) | > 100 µM (inactive) | > 100 µM (inactive) |  | > 100 µM (inactive) | > 100 µM (inactive) |  |  |
| O=C(/C=C/c1ccc(Cl)c(Cl)c1)c1ccc(F)cc1 | 16.9 µM (inactive) |  | 14.6 µM (inactive) | 12.5 µM (inactive) | 20.7 µM (inactive) | 18.2 µM (inactive) | 50 µM (inactive) |  |  |
| Cc1ccc(CCNC(=S)SCC(NC(=O)CCC(N)C(=O)O)C(=O)NCC(=O)O)cc1 (stereo unspecified) | 2.52 µM (inactive) | 1.49 µM (inactive) | 0.75 µM (active) | 0.414 µM (active) |  | 1.7 µM (inactive) | 2.2 µM (inactive) |  |  |
| CC1C(O)=C(O)c2ccccc2N1O (stereo unspecified) | 93.8 µM (inactive) | > 100 µM (inactive) | > 100 µM (inactive) | > 100 µM (inactive) | > 100 µM (inactive) | > 100 µM (inactive) | > 100 µM (inactive) |  |  |
| CCCCCCNC(=O)CCN(C(=O)O)S(=O)(=O)c1ccc(NC(=O)c2ccccc2)cc1 | > 100 µM (inactive) | > 100 µM (inactive) | > 95.9 µM (inactive) | > 41 µM (inactive) | > 100 µM (inactive) | > 49.3 µM (inactive) |  |  |  |
| C[C@@H](NC1CCC[C@H]1O)c1ccccc1 (stereo partly specified) | > 100 µM (inactive) | 5.66 µM (inactive) | > 100 µM (inactive) | > 100 µM (inactive) | > 100 µM (inactive) | > 100 µM (inactive) |  |  |  |
| C1CN2CCN3CCN4CCN1[PH]243 | > 100 µM (inactive) | > 100 µM (inactive) | > 100 µM (inactive) | > 100 µM (inactive) | > 100 µM (inactive) | > 100 µM (inactive) |  |  |  |
| O=C1C2C3C=CC(C2C(=O)N1CN1CCSCC1)C1C2C(=O)N(CN4CCSCC4)C(=O)C2C31 (stereo unspecified) | 41.2 µM (inactive) | > 100 µM (inactive) | > 100 µM (inactive) | > 43.5 µM (inactive) | > 100 µM (inactive) | > 100 µM (inactive) | > 100 µM (inactive) |  |  |
| CN(C)CCCNC(=O)c1cccc2nc3ccccc3nc12 | > 42.5 µM (inactive) | 1.14 µM (inactive) | 20.2 µM (inactive) | 9.91 µM (inactive) | 14.3 µM (inactive) | 6.58 µM (inactive) | 32.6 µM (inactive) |  |  |
| CCOC(=O)COS(=O)(=O)C(F)(F)F | > 100 µM (inactive) | > 100 µM (inactive) | 89.9 µM (inactive) | 18.4 µM (inactive) | > 100 µM (inactive) | > 100 µM (inactive) | 45.1 µM (inactive) |  |  |
| CN(C)CC1CC/C(=C\c2ccc(Cl)c(Cl)c2)C1=O (stereo unspecified) | > 62.4 µM (inactive) | > 46.8 µM (inactive) | 13.2 µM (inactive) | 28.8 µM (inactive) | 31.5 µM (inactive) | 29.4 µM (inactive) |  |  |  |
